# Assay results: US11931364B2, “Modulation of the nitric oxide synthase pathway for oral health” (Meharry Medical College, priority 2016, dated 2024)
# System: nitric oxide release in rat tissue
# Test: Nitric oxide release in rat tissue exposed to hyperglycemia in vitro, with sepiapterin supplementation
# Details: hyperglycemia 55 mM, 48 hr incubation, sepiapterin 100 μM, n=4 per group, FIG. 5
# Method: FIG. 5. Effect of hyperglycemia (55 mM, 48 hr incubation) and supplementation of sepiapterin (SEP, 100 μM), on nitric oxide release in rat tissue. The bars represent mean f SEM. *p<0.05 non-glycemic (N.G, Control) vs. hyperglycemic (H.G); #p<0.05 N.G vs. SEP, t-test (n=4 in each group). […] Protein expression for DHFR was reduced in diabetic female rats (FIGS. 3A-3B). […] All the above findings correlated well with the impaired saliva secretion and water intake (FIGS. 1A-1B) and e/n NOS activity (FIGS. 3A-3B) as measured by dimerization in SM gland tissue. Therefore, dietary supplementation of sepiapterin improves e/n NOSα dimerization, nNOS activity, NO synthesis and saliva secretion.
compound,measurement,value
C[C@H](O)C(=O)C1=Nc2c(nc(N)[nH]c2=O)NC1 [sepiapterin],NO release in the tissue exposed to hyperglycemia,improved NO release
